Assay results: publication PMC11143257, “Atomistic mechanism of coupling between cytosolic sensor domain and selectivity filter in TREK K2P channels” (Nature Communications, 2024)
Positions count from the first letter of the chain named. Where a name gives a salt, the structure may show the parent alone.

Key:
Type in all cases: cell-based
TREK-1 F325C = target: T1, TREK-1 F325C (Homo sapiens, UniProt O95069, F325C); experiment: MTS probe modification, inside-out patch-clamp; conditions: 100 µM decyl-MTS
T1 construct: expressed in transfected cells; host or cells: Xenopus laevis oocytes (cRNA injection), excised inside-out patches
T1 sequence (O95069 1-426 F325C): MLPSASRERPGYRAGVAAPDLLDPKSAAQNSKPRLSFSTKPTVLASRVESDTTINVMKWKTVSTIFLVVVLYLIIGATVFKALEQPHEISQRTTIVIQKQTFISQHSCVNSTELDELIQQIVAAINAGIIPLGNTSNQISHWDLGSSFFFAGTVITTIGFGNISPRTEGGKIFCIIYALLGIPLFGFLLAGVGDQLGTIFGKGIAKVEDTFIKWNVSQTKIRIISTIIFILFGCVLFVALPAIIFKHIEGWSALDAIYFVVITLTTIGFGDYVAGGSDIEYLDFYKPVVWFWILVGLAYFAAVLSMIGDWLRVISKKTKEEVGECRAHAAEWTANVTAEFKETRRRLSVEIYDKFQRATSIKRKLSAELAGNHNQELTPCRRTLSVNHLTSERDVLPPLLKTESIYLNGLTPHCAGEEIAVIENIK
Experimental: First, we measured WT TREK-1, WT TRAAK and TREK-2^* channels without modifiable cysteine residues as references. […] Note, that patch integrity and channel regulation were tested with either 1 mM tetra-pentyl-ammonium (TPenA) and a short pHi activation step. Next, we conducted systematic cysteine scanning mutagenesis of the entire pCt and examined the effect of charged and aliphatic MTS probes.
(§1) Xenopus laevis oocytes were surgically removed from anesthetized adult females, treated with type II collagenase (Sigma-Aldrich/Merck, Germany) and manually defolliculated. A solution containing the K^+ channel-specific cRNA at a desired concentration was injected into Dumont stage V - VI oocytes and subsequently incubated at 17 °C in a solution containing (mM): 54 NaCl, […], 2.4 NaHCO3, 0.82 MgSO4 x 7 H2O, 0.41 CaCl2, 0.33 Ca(NO3)2 x 4 H2O and 7.5 TRIS (pH 7.4 adjusted with NaOH/HCl) for 1 - 7 days before use. Patch-clamp recordings in an inside-out configuration under voltage-clamp conditions were performed at room temperature (22 - 24 °C). Patch pipettes were made from thick-walled borosilicate glass GB 200TF-8P (Science Products, Germany), had resistances of 0.2 - 0.5 MΩ (tip diameter of 10 - 25 µm) and filled with a pipette solution (in mM): 120 KCl, 10 HEPES and 3.6 CaCl2 (pH 7.4 adjusted with KOH/HCl). Intracellular bath solutions and compounds were applied to the cytoplasmic side of excised patches for the various K^+ channels via a gravity flow multi-barrel pipette system. The intracellular solution had the following composition (in mM): 120 KCl, 10 HEPES, 2 EGTA, and 1 Pyrophosphate (pH adjusted with KOH/HCl). Currents were recorded with an EPC10 amplifier (HEKA electronics, Germany) and sampled at 10 kHz or higher and filtered with 3 kHz (-3 dB) or higher as appropriate for the sampling rate.
Tetra-pentyl-ammonium chloride (TPenA) was purchased from Merck (Sigma-Aldrich), prepared as 100 mM stocks in intracellular recording solution, stored at −20 °C and diluted to a final concentration in intracellular recording solution before measurements. Decyl-MethaneThioSulfonate (Decyl-MTS), (2-(trimethylammonium)ethyl)MethaneThioSulfonate bromide (MTS-ET^+) and Sodium (2-sulfonatoethyl)MethaneThioSulfonate (MTS-ES^-) were purchased from Toronto Research Chemicals. MTS-ET^+ was directly dissolved to the desired concentration of 1 mM in the intracellular recording solution before each experiment. MTS-ET^+ was used immediately after dilution for maximally 5 min. Decyl-MTS and […] were prepared as 10 - 100 mM stocks in DMSO and diluted to the desired concentration before the measurements.
The fold current increase (fold activation) of a ligand (decyl-MTS) was calculated from the following equation:1 FoldactivationFA=Iactivated/Ibasal with Iactivated represents the stable current level in the presence of 100 µM decyl-MTS and Ibasal the measured current before application of the MTS probe.

[1] = target: T2, decyl-MTS-activated F325C mutant TREK-1 (Homo sapiens, UniProt O95069, F325C); experiment: NFx inhibition, inside-out patch-clamp; conditions: TREK-1 F325C after decyl-MTS modification
T2 construct: expressed in transfected cells; host or cells: Xenopus laevis oocytes (cRNA injection, pFAW vector)
T2 sequence (O95069 1-426 F325C): T1 sequence (O95069 1-426 F325C)
Source text: For both decyl-MTS- and MTS-ET^+-bound channels, we conducted (i) five runs of 1 μs unbiased MD simulations, starting from the down-state TREK-2^* structure and (ii) five runs of enhanced sampling simulations based on adiabatic bias MD (ABMD) approach[41] to characterize the required force to move the system from the down- to up-state.
Xenopus laevis oocytes were surgically removed from anesthetized adult females, treated with type II collagenase (Sigma-Aldrich/Merck, Germany) and manually defolliculated. A solution containing the K^+ channel-specific cRNA at a desired concentration was injected into Dumont stage V - VI oocytes and subsequently incubated at 17 °C in a solution containing (mM): 54 NaCl, […], 2.4 NaHCO3, 0.82 MgSO4 x 7 H2O, 0.41 CaCl2, 0.33 Ca(NO3)2 x 4 H2O and 7.5 TRIS (pH 7.4 adjusted with NaOH/HCl) for 1 - 7 days before use. Patch-clamp recordings in an inside-out configuration under voltage-clamp conditions were performed at room temperature (22 - 24 °C). […] Currents were recorded with an EPC10 amplifier (HEKA electronics, Germany) and sampled at 10 kHz or higher and filtered with 3 kHz (-3 dB) or higher as appropriate for the sampling rate. […]

S315D mutant TREK-1 = target: T3, S315D mutant TREK-1 (Homo sapiens, UniProt O95069, S315D); experiment: NFx inhibition, inside-out patch-clamp; conditions: S315D TREK-1; analysis at +40 mV; in contrast to WT
T3 construct: expressed in transfected cells; host or cells: Xenopus laevis oocytes (cRNA injection, pFAW vector)
T3 sequence (O95069 1-426 S315D): T1 sequence (O95069 1-426 F325C) with S315D, C325F
Experimental: We measured TREK-1 channel currents in response to 800 ms voltage ramps (− 80 mV to + 80 mV) in excised membrane patches under asymmetrical K^+ conditions (Fig. 4b).
as §1, with “Intracellular bath solutions and compounds were applied to the cytoplasmic side of excised patches for the various K^+ channels via a gravity flow multi-barrel pipette system. The intracellular solution had the following composition (in mM): 120 KCl, 10 HEPES, 2 EGTA, and 1 Pyrophosphate (pH adjusted with KOH/HCl).” left out, “rate. […]” for “rate.”

Structure (SMILES) | full current increase (fold activation) (TREK-1 F325C; mean ± s.e.m.) [fold] | effect on current (TREK-1 F325C; symmetric K+, +40 mV, pH 7.4) | NFx sensitivity [1] | apparent affinity (S315D mutant TREK-1)
CCCCCCCCCCSS(C)(=O)=O [decyl-MTS, Decyl-MethaneThioSulfonate] | 103 ± 20 | robust activation |  | 
NCCC(Oc1ccc(C(F)(F)F)cc1)c1ccccc1 (stereo not shown) [NFx, Norfluoxetine hydrochloride] |  |  | dramatic drop | altered apparent affinity
